Test results: publication PMC8031368 (ACS chemical biology, 2020)

What was measured:
PR = target: T1, PR (Homo sapiens, UniProt P06401); test: 3H-progesterone displacement assay on MCF7 cells; format: binding
T1 sequence (P06401 1-933): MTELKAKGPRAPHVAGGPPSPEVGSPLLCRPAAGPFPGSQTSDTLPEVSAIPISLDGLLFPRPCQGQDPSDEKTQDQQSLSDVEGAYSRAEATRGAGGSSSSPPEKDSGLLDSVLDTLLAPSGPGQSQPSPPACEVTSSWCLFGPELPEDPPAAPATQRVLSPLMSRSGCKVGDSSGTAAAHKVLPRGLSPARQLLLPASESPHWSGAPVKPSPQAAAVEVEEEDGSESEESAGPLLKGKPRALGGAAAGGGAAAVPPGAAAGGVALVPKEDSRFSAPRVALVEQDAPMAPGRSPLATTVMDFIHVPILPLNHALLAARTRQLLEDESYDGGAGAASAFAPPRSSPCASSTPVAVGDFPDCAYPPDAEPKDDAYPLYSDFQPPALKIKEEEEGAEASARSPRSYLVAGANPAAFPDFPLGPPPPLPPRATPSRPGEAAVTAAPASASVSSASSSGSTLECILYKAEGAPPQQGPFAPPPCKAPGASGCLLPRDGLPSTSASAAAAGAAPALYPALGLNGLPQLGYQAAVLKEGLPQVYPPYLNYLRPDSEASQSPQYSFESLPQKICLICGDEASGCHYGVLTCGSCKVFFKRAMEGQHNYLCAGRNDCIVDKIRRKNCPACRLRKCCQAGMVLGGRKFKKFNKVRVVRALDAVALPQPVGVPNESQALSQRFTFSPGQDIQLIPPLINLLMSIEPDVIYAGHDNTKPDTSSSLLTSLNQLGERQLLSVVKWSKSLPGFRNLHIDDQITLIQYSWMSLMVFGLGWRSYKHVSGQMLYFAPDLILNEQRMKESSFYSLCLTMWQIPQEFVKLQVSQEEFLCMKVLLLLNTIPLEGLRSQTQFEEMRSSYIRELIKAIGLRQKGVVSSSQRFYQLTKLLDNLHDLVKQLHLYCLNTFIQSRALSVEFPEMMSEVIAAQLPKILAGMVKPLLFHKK

GR = target: T2, GR (Homo sapiens, UniProt P04150); test: 3H-dexamethasone displacement assay on DU145 cells; format: binding
T2 sequence (P04150 1-777): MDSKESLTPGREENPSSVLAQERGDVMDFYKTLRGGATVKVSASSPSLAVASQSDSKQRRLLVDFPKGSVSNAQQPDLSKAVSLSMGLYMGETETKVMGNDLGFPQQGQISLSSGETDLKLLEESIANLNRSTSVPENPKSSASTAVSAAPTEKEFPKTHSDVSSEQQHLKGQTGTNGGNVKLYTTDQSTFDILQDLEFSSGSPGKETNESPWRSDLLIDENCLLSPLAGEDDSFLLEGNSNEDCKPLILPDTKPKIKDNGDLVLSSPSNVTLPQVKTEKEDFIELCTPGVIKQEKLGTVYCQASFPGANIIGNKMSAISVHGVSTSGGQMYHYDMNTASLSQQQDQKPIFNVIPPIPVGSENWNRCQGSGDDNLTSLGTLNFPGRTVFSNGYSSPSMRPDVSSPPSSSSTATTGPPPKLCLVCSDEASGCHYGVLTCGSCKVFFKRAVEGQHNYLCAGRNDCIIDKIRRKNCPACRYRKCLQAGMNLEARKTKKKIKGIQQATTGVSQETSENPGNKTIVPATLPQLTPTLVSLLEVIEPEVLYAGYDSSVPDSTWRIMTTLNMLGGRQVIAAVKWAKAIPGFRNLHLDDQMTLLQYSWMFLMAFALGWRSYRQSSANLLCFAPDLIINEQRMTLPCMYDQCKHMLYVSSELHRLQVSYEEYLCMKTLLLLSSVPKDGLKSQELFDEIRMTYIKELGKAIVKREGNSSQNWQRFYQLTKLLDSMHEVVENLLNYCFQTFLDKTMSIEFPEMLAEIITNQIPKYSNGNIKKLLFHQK

AR = target: T3, AR (Homo sapiens, UniProt P10275); test: 3H-dihydrotestosterone displacement assay on LNCaP-AR cells; format: binding
T3 sequence (P10275 1-920): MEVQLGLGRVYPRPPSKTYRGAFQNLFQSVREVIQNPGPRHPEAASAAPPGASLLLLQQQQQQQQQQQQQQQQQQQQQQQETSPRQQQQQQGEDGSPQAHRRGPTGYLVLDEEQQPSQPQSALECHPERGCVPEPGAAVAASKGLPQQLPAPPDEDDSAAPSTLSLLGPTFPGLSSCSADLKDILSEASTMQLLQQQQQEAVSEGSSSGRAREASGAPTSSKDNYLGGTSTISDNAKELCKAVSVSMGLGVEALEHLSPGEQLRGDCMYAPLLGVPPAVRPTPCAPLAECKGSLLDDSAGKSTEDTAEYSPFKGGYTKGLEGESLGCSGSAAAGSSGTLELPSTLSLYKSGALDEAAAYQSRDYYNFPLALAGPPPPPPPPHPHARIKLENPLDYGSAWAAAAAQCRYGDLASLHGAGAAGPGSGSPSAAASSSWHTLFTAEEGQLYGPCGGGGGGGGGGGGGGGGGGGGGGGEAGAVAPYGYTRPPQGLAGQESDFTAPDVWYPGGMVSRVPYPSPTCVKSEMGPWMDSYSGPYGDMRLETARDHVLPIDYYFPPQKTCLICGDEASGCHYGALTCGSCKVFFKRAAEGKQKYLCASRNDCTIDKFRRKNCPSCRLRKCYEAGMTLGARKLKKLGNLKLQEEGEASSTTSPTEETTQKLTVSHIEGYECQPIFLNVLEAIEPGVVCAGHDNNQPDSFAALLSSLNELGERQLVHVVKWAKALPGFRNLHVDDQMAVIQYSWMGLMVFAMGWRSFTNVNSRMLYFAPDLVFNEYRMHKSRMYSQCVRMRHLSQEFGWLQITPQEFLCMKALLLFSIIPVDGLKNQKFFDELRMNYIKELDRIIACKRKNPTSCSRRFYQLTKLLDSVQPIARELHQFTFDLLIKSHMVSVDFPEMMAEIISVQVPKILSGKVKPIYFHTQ

[1] = system: GR target genes (GILZ, FKBP5, Per1) in DU145 cells; test: Real time PCR of GR target genes in DU145 cells; format: cell-based, human
ER = target: T4, ER (Homo sapiens, UniProt P03372); test: 3H-estradiol displacement assay on MCF7 cells; format: binding
T4 sequence (P03372 1-595): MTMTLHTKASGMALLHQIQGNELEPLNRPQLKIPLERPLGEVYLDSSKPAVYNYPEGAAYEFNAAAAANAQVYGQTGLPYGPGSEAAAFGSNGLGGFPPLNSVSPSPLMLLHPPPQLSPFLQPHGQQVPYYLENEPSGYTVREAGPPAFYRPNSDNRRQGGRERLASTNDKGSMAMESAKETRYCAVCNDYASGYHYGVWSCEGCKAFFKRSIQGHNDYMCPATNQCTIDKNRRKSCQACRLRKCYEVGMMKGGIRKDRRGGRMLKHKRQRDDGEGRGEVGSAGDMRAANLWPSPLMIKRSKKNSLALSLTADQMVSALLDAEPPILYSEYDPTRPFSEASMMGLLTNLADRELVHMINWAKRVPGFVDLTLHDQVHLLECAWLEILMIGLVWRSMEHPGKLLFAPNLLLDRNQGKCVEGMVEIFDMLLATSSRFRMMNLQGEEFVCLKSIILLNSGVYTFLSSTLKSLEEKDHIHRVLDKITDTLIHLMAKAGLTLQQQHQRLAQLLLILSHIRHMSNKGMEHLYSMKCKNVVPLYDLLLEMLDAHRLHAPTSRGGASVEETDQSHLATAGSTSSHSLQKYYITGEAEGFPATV

COc1cccc2c1-c1ccc3c(c1C(Cc1ccc(F)cc1)O2)C(C)=CC(C)(C)N3 (centres unmarked) [YJH08, 5-(4-fluorobenzyl)-10-methoxy-2,2,4-trimethyl-2,5-dihydro-1H-chromeno[3,4-f]quinoline]
Ki (PR): 0.555 µM | Ki (GR; Ki GR, 3H-dexamethasone displacement, DU145 cells, one site Ki fit): 0.000401 µM | Ki (GR; Ki for GR): ~0.0004 µM | Ki (AR): 0.22 µM | levels of GR target genes GILZ, FKBP5 ([1]; DU145 cells, 10 μM, 6 h exposure, real time PCR): elevated | induction of Per1 ([1]; DU145 cells, YJH08 10 μM, 6 h exposure): induced by dexamethasone but not YJH08 | GR functional activity (overall assessment) ([1]; from target gene induction in DU145 cells): mild GR agonist | Ki (ER): 19 µM
